Assay results as given in ChEMBL document CHEMBL1909046, “DrugMatrix in vitro pharmacology data”.

How the values were obtained:
Cytochrome P450 1A2 = target: T1, Cytochrome P450 1A2 (Homo sapiens, UniProt P05177); settings: bti-tn-5b1-4; further: in other assays of this panel Not Active means under 50% inhibition at 10 µM
T1 sequence (P05177 whole entry): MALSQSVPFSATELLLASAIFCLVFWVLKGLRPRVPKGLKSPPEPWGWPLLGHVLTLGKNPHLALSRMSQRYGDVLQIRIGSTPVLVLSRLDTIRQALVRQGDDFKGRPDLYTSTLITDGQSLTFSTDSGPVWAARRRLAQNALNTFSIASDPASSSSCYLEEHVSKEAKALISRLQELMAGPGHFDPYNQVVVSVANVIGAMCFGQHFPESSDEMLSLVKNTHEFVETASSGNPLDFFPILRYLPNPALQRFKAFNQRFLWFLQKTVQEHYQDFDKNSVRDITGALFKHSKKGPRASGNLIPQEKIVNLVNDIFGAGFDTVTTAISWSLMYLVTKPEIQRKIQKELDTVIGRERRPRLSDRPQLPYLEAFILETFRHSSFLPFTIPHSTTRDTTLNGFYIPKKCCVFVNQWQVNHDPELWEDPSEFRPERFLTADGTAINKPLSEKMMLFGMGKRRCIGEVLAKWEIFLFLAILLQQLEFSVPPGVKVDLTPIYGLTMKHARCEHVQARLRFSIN

[1] = target: T2, Receptor-type tyrosine-protein phosphatase C (Homo sapiens, UniProt P08575); design: species or system Escherichia coli;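 further: inhibition of CD45 enzyme activity measured using DiFMUP as substrate; in other assays of this panel Not Active means under 50% inhibition at 10 µM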
T2 sequence (P08575 whole entry): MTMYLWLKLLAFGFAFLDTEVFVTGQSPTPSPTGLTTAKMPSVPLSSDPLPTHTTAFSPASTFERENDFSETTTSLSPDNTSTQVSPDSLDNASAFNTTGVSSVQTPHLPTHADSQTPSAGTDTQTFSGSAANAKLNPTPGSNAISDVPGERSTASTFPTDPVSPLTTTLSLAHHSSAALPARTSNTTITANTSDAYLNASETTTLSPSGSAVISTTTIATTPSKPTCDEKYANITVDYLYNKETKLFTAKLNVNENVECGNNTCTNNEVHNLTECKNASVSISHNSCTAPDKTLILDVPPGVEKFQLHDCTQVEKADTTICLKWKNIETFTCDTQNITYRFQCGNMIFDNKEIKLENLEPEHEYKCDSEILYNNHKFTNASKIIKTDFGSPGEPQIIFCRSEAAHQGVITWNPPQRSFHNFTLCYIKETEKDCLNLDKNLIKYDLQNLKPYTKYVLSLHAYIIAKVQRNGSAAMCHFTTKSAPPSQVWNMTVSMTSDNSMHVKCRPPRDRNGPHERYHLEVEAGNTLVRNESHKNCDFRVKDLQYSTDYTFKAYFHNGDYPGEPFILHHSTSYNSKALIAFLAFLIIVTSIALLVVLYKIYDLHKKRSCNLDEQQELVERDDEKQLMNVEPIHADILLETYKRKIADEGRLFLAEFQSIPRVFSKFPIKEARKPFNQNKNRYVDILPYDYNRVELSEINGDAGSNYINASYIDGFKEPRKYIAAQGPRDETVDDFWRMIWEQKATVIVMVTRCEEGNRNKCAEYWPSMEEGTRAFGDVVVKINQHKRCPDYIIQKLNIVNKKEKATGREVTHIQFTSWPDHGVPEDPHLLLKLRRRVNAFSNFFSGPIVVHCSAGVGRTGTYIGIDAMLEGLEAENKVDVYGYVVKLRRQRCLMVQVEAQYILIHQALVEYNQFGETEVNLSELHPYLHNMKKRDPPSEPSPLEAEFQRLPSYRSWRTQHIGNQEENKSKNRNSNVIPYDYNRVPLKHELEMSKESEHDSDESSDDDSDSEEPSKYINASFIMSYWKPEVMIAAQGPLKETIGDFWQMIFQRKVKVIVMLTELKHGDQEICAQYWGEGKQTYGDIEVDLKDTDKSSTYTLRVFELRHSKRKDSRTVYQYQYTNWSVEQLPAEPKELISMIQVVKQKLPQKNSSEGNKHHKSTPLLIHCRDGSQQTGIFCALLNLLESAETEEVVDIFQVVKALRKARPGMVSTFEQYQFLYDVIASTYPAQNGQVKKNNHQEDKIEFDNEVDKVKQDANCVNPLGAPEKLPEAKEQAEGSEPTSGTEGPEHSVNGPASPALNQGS

[2] = target: C-C chemokine receptor type 5 (Homo sapiens, UniProt P51681); assay type: cell membranes, Membrane; settings: hek293; further: in other assays of this panel Not Active means under 50% inhibition at 10 µM
Chain of C-C chemokine receptor type 5 (P51681 whole entry): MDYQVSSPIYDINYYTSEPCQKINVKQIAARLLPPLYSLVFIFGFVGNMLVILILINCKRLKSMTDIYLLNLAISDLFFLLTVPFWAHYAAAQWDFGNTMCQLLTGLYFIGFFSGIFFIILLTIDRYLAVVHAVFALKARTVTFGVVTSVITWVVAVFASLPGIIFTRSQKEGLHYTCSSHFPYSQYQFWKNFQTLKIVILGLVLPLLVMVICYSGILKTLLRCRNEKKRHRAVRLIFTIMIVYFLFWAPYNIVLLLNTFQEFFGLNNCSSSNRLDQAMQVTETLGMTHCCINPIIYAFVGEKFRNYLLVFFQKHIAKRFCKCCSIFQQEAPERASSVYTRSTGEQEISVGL

D(1A) dopamine receptor = D(1A) dopamine receptor (Homo sapiens, UniProt P21728); experiment: DRUGMATRIX: Dopamine D1 radioligand binding (ligand: [3H] SCH-23390); assay type: cell membranes, CHO, Membrane; settings: cho; Not Active = under 50% inhibition at 10 µM
Chain of D(1A) dopamine receptor (P21728 whole entry): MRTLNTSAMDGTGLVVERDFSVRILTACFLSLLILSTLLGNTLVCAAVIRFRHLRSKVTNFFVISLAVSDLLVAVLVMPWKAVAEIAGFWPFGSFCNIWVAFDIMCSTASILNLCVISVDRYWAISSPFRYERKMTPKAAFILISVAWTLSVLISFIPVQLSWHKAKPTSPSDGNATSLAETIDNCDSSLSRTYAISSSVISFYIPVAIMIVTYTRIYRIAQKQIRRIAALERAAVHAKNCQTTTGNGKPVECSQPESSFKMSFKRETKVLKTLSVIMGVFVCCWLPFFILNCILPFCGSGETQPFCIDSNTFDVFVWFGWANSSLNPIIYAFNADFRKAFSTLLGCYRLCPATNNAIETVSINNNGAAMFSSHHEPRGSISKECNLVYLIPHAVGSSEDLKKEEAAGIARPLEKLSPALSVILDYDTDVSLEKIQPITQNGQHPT

[3] = target: Beta-3 adrenergic receptor (Homo sapiens, UniProt P13945); experiment: DRUGMATRIX: Adrenergic beta3 radioligand binding (ligand: [125I] Cyanopindolol); assay type: cell membranes, HEK293, Membrane; settings: Not Active = under 50% inhibition at 10 µM
Chain of Beta-3 adrenergic receptor (P13945 whole entry): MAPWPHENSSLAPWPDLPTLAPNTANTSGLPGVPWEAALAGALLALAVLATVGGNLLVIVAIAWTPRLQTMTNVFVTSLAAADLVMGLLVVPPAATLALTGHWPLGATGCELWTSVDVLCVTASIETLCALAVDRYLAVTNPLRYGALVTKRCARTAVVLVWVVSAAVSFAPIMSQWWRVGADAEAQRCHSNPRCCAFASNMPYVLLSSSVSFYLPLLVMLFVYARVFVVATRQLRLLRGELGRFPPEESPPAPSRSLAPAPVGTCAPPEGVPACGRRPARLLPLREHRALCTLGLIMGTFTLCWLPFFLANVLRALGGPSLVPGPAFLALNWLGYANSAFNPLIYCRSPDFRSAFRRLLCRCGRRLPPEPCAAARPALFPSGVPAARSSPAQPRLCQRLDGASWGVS

Mu-type opioid receptor = Mu-type opioid receptor (Homo sapiens, UniProt P35372); experiment: DRUGMATRIX: Opiate mu (OP3, MOP) radioligand binding (ligand: [3H] Diprenorphine); assay type: cell membranes, CHO-K1, Membrane; settings: cho-k1; Not Active = under 50% inhibition at 10 µM
Chain of Mu-type opioid receptor (P35372 whole entry): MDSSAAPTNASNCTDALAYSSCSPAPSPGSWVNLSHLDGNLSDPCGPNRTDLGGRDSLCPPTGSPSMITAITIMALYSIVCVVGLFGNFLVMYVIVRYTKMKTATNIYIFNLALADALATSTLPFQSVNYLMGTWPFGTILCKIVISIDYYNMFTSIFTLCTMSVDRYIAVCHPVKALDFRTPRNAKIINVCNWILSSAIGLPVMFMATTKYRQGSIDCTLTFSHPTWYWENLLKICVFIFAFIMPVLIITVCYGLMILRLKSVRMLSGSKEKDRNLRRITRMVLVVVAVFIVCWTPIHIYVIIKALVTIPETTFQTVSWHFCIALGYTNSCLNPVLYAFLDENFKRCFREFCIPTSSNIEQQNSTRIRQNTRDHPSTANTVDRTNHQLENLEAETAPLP

[4] = DRUGMATRIX: Calcium Channel Type L, Phenylalkylamine radioligand binding (ligand: [3H] (-)-Desmethoxyverapamil (D-888)); assay type: cell membranes, Rattus norvegicus, Wistar, Brain, Membrane; settings: Not Active = under 50% inhibition at 10 µM

SMILES | IC50 (Cytochrome P450 1A2) | Ki (Cytochrome P450 1A2) | IC50 [1] | IC50 [2] | IC50 (D(1A) dopamine receptor) | IC50 ([3]; hek293) | IC50 (Mu-type opioid receptor) | IC50 [4] | Ki [4] | IC50 ([3]; read-out: IC50) [nM] | Ki ([3]; read-out: Ki) [nM] | IC50 ([4]; read-out: IC50) [nM] | Ki ([4]; read-out: Ki) [nM]
COc1cc(N)nc2[nH]c(-c3ccc(F)cc3)c(-c3ccncc3)c12 | Not Active | Not Active | Not Active | Not Active | Not Active | Not Active | Not Active | Not Active | Not Active | – | – | – | –
CNS(=O)(=O)Cc1ccc2[nH]cc(CCN(C)C)c2c1 | Not Active | Not Active | Not Active | Not Active | Not Active | Not Active | Not Active | Not Active | Not Active | – | – | – | –
CCCc1nn(C)c2c(=O)[nH]c(-c3cc(S(=O)(=O)N4CCN(C)CC4)ccc3OCC)nc12 | Not Active | Not Active | Not Active | Not Active | Not Active | Not Active | Not Active | Not Active | Not Active | – | – | – | –
COc1ccc(/C=C/C(=O)Nc2ccccc2C(=O)O)cc1OC | Not Active | Not Active | Not Active | Not Active | Not Active | Not Active | Not Active | Not Active | Not Active | – | – | – | –
CCOC(N)=O | Not Active | Not Active | Not Active | Not Active | Not Active | Not Active | Not Active | Not Active | Not Active | – | – | – | –
CC1=C(CC(=O)O)c2cc(F)ccc2/C1=C\c1ccc(S(C)(=O)=O)cc1 [EXISULIND] | Not Active | Not Active | Not Active | Not Active | Not Active | Not Active | Not Active | Not Active | Not Active | – | – | – | –
Nc1nc2c(c(=O)[nH]1)N(C=O)C(CNc1ccc(C(=O)N[C@@H](CCC(=O)O)C(=O)O)cc1)CN2 (some centres undefined) [LEUCOVORIN] | Not Active | Not Active | Not Active | Not Active | Not Active | Not Active | Not Active | Not Active | Not Active | – | – | – | –
C[C@@H](O)[C@H]1C(=O)N2C(C(=O)O)=C(S[C@@H]3CN[C@H](C(=O)N(C)C)C3)[C@H](C)[C@H]12 [MEROPENEM] | Not Active | Not Active | Not Active | Not Active | Not Active | Not Active | Not Active | Not Active | Not Active | – | – | – | –
O=P(O)(O)C(O)(Cc1cccnc1)P(=O)(O)O [RISEDRONIC ACID] | Not Active | Not Active | Not Active | Not Active | Not Active | Not Active | Not Active | Not Active | Not Active | – | – | – | –
CN(CCOc1ccc(CC2SC(=O)NC2=O)cc1)c1ccccn1 (centres undefined) [ROSIGLITAZONE] | Not Active | Not Active | Not Active | Not Active | Not Active | Not Active | Not Active | Not Active | Not Active | – | – | – | –
C#CCN(C)[C@H](C)Cc1ccccc1 [SELEGILINE] | Not Active | Not Active | Not Active | Not Active | Not Active | Not Active | Not Active | Not Active | Not Active | – | – | – | –
CO[C@H]1C[C@@H]2CC[C@@H](C)[C@@](O)(O2)C(=O)C(=O)N2CCCC[C@H]2C(=O)O[C@H]([C@H](C)C[C@@H]2CC[C@@H](O)[C@H](OC)C2)CC(=O)[C@H](C)/C=C(\C)[C@@H](O)[C@@H](OC)C(=O)[C@H](C)C[C@H](C)/C=C/C=C/C=C/1C [SIROLIMUS] | Not Active | Not Active | Not Active | Not Active | Not Active | Not Active | Not Active | Not Active | Not Active | – | – | – | –
Nc1ccc(S(=O)(=O)Nc2ncccn2)cc1 [SULFADIAZINE] | Not Active | Not Active | Not Active | Not Active | Not Active | Not Active | Not Active | Not Active | Not Active | – | – | – | –
COc1ncnc(NS(=O)(=O)c2ccc(N)cc2)c1OC [SULFADOXINE] | Not Active | Not Active | Not Active | Not Active | Not Active | Not Active | Not Active | Not Active | Not Active | – | – | – | –
Nc1ccc(S(=O)(=O)Nc2nccs2)cc1 [SULFATHIAZOLE] | Not Active | Not Active | Not Active | Not Active | Not Active | Not Active | Not Active | Not Active | Not Active | – | – | – | –
C[C@]12CC[C@H]3[C@@H](CCC4=CC(=O)CC[C@@]43C)[C@@H]1CC[C@@H]2O [TESTOSTERONE] | Not Active | Not Active | Not Active | Not Active | Not Active | Not Active | Not Active | Not Active | Not Active | – | – | – | –
CC(C)(C)NC[C@H](O)COc1nsnc1N1CCOCC1 [TIMOLOL] | Not Active | Not Active | Not Active | Not Active | Not Active | – | Not Active | Not Active | Not Active | 452 | 339 | – | –
C[C@@H]1C[C@H]2[C@@H]3CCC4=CC(=O)C=C[C@]4(C)C3=CC[C@]2(C)[C@H]1C(=O)CN1CCN(c2cc(N3CCCC3)nc(N3CCCC3)n2)CC1 [TIRILAZAD] | Not Active | Not Active | Not Active | Not Active | Not Active | Not Active | Not Active | – | – | – | – | 2500 | 2430
COc1ccc(CN2CCNCC2)c(OC)c1OC [TRIMETAZIDINE] | – | – | Not Active | Not Active | Not Active | Not Active | Not Active | Not Active | Not Active | – | – | – | –
CC(=O)O[C@H]1C[C@@H]2CC[C@@H]3[C@H](CC[C@@]4(C)[C@H]3C[C@H]([N+]3(C)CCCCC3)[C@@H]4OC(C)=O)[C@@]2(C)C[C@@H]1N1CCCCC1.[Br-] [VECURONIUM BROMIDE] | Not Active | Not Active | Not Active | Not Active | Not Active | Not Active | Not Active | Not Active | Not Active | – | – | – | –
